These results are taken from PMC9607427, “Novel 7-Chloro-(4-thioalkylquinoline) Derivatives: Synthesis and Antiproliferative Activity through Inducing Apoptosis and DNA/RNA Damage” (Pharmaceuticals, 2022).

By melting point is commonly meant the temperature of the solid-liquid transition.

For the compound `COc1cc(OC)cc(C(=O)OCCSc2ccnc3cc(Cl)ccc23)c1` [Compound 11, 2-[(7-Chloroquinolin-4-yl)sulfanyl]ethyl 3,5-dimethoxybenzoate], the melting point was 100 to 102 °C.
To `COc1cc(C(=O)OCC[S+]([O-])c2ccnc3cc(Cl)ccc23)cc(OC)c1OC` (stereo not shown) [Compound 46, 2-[(7-Chloroquinolin-4-yl)sulfinyl]ethyl-3,4,5-trimethoxybenzoate] belongs 144 to 146 °C.
For `COc1ccc(C(=O)OCCCSc2ccnc3cc(Cl)ccc23)c(OC)c1` [Compound 25, 3-[(7-Chloroquinolin-4-yl)sulfanyl]propyl-2,4-dimethoxybenzoate], the melting point was 74 to 76 °C.
Consider `COc1ccc(C(=O)OCCCSc2ccnc3cc(Cl)ccc23)c(OC)c1OC` [Compound 28, 3-[(7-Chloroquinolin-4-yl)sulfanyl]propyl-2,3,4-trimethoxybenzoate], for which the melting point was determined as 84 °C.
As to `COc1cccc(OC)c1C(=O)OCCSc1ccnc2cc(Cl)ccc12` [Compound 9, 2-[(7-Chloroquinolin-4-yl)sulfanyl]ethyl 2,6-dimethoxybenzoate], the melting point was in the range of 116 to 118 °C.
To `COc1ccc(OC)c(C(=O)OCCCSc2ccnc3cc(Cl)ccc23)c1` [Compound 26, 3-[(7-Chloroquinolin-4-yl)sulfanyl]propyl-2,5-dimethoxybenzoate] belongs 97 to 98 °C; to `COc1ccc(OC)c(C(=O)OCCSc2ccnc3cc(Cl)ccc23)c1` [Compound 8, 2-[(7-Chloroquinolin-4-yl)sulfanyl]ethyl-2,5-dimethoxybenzoate], 98 to 100 °C; to `COc1ccc(C(=O)OCCCSc2ccnc3cc(Cl)ccc23)cc1[N+](=O)[O-]` [Compound 35, 3-[(7-Chloroquinolin-4-yl)sulfanyl]propyl-4-methoxy-3-nitrobenzoate], 138 to 140 °C.
`COc1cc(OC)c(C(=O)OCCSc2ccnc3cc(Cl)ccc23)cc1OC` [Compound 13, 2-[(7-Chloroquinolin-4-yl)sulfanyl]ethyl 2,4,5-trimethoxybenzoate] gave a melting point of 134 to 135 °C.
The compound `O=C(OCCCSc1ccnc2cc(Cl)ccc12)c1cccc(Cl)c1` [Compound 33, 3-[(7-Chloroquinolin-4-yl)sulfanyl]propyl-3-chlorobenzoate] showed a melting point of 96 to 98 °C.
To `COc1ccc(C(=O)OCCSc2ccnc3cc(Cl)ccc23)c(OC)c1` [Compound 7, 2-[(7-Chloroquinolin-4-yl)sulfanyl]ethyl 2,4-dimethoxybenzoate] belongs 107 to 108 °C; to `Cc1cc(C)cc(C(=O)OCCCSc2ccnc3cc(Cl)ccc23)c1` [Compound 37, 3-[(7-Chloroquinolin-4-yl)sulfanyl]propyl-3,5-dimethylbenzoate], 136 to 138 °C.
The value for `COc1ccc(C(=O)OCCSc2ccnc3cc(Cl)ccc23)cc1[N+](=O)[O-]` [Compound 17, 2-[(7-Chloroquinolin-4-yl)sulfanyl]ethyl 4-methoxy-3-nitrobenzoate] was 171 to 173 °C.
To `COc1cc(C(=O)OCCSc2ccnc3cc(Cl)ccc23)cc(OC)c1OC` [Compound 14, 2-[(7-Chloroquinolin-4-yl)sulfanyl]ethyl 3,4,5-trimethoxybenzoate] belongs 139 to 140 °C; to `COc1cc(OC)cc(C(=O)OCCCSc2ccnc3cc(Cl)ccc23)c1` [Compound 27, 3-[(7-Chloroquinolin-4-yl)sulfanyl]propyl-3,5-dimethoxybenzoate], 148 °C.
With `Cc1ccc([N+](=O)[O-])c(C(=O)OCCCSc2ccnc3cc(Cl)ccc23)c1` [Compound 36, 3-[(7-Chloroquinolin-4-yl)sulfanyl]propyl-5-methyl-2-nitrobenzoate], the melting point lay in the range of 91 to 92 °C.
To `COc1ccc(C(=O)OCCCSc2ccnc3cc(Cl)ccc23)cc1` [Compound 23, 3-[(7-Chloroquinolin-4-yl)sulfanyl]propyl-4-methoxybenzoate] belongs 106 to 108 °C; to `O=C(OCCCSc1ccnc2cc(Cl)ccc12)c1ccccc1Cl` [Compound 32, 3-[(7-Chloroquinolin-4-yl)sulfanyl]propyl-2-chlorobenzoate], 100 to 102 °C; to `COc1cc(OC)c(C(=O)OCCCSc2ccnc3cc(Cl)ccc23)cc1OC` [Compound 29, 3-[(7-Chloroquinolin-4-yl)sulfanyl]propyl-2,4,5-trimethoxybenzoate], 118 to 120 °C.
The value for `COc1ccccc1C(=O)OCCSc1ccnc2cc(Cl)ccc12` [Compound 22, 2-[(7-Chloroquinolin-4-yl)sulfanyl]ethyl-2-methoxybenzoate] was 98 to 99 °C; that for `CC(C)(C)c1ccc(C(=O)OCCCSc2ccnc3cc(Cl)ccc23)cc1` [Compound 39, 3-[(7-Chloroquinolin-4-yl)sulfanyl]propyl-4-tert-butylbenzoate] was 88 to 90 °C; that for `COc1cccc(C(=O)OCCCSc2ccnc3cc(Cl)ccc23)c1OC` [Compound 24, 3-[(7-Chloroquinolin-4-yl)sulfanyl]propyl-2,3-dimethoxybenzoate] was 78 to 80 °C.
The value for `O=C(OCCSc1ccnc2cc(Cl)ccc12)c1ccc(C(F)(F)F)cc1` [Compound 20, 2-[(7-Chloroquinolin-4-yl)sulfanyl]ethyl 4-(trifluoromethyl)benzoate] was 134 to 136 °C; that for `COc1cc(OC)c(C(=O)OCC[S+]([O-])c2ccnc3cc(Cl)ccc23)cc1OC` (stereo not shown) [Compound 45, 2-[(7-Chloroquinolin-4-yl)sulfinyl]ethyl-2,4,5-trimethoxybenzoate] was 151 to 153 °C; that for `O=C(OCCCSc1ccnc2cc(Cl)ccc12)c1ccccc1F` [Compound 40, 3-[(7-Chloroquinolin-4-yl)sulfanyl]propyl-2-fluorobenzoate] was 112 to 113 °C.
`COc1ccc(C(=O)OCCSc2ccnc3cc(Cl)ccc23)cc1OC` [Compound 10, 2-[(7-Chloroquinolin-4-yl)sulfanyl]ethyl 3,4-dimethoxybenzoate] yielded a melting point of 109 to 110 °C.
As to `CC(C)(C)c1ccc(C(=O)OCCSc2ccnc3cc(Cl)ccc23)cc1` [Compound 21, 2-[(7-Chloroquinolin-4-yl)sulfanyl]ethyl-4-tert-butylbenzoate], the melting point lay in the range of 120 to 122 °C.
To `O=C(OCCCSc1ccnc2cc(Cl)ccc12)c1ccc(Cl)cc1Cl` [Compound 34, 3-[(7-Chloroquinolin-4-yl)sulfanyl]propyl-2,4-dichlorobenzoate] belongs 88 to 89 °C.
The value for `COc1ccccc1C(=O)OCCCSc1ccnc2cc(Cl)ccc12` [Compound 31, 3-[(7-Chloroquinolin-4-yl)sulfanyl]propyl-2-methoxybenzoate] was 95 to 97 °C; that for `O=C(OCCSc1ccnc2cc(Cl)ccc12)c1ccccc1Cl` [Compound 15, 2-[(7-Chloroquinolin-4-yl)sulfanyl]ethyl 2-chlorobenzoate] was 108 °C; that for `COc1ccc(C(=O)OCCSc2ccnc3cc(Cl)ccc23)c(OC)c1OC` [Compound 12, 2-[(7-Chloroquinolin-4-yl)sulfanyl]ethyl 2,3,4-trimethoxybenzoate] was 94 to 96 °C.
